Legend:
E. coli ATCC 25922 [1] = assay: Qualitative susceptibility by glucose consumption, directly from positive BC-bottles (Example 2, Table 7); assay type: cell-based
E. faecium [2] = assay: Qualitative susceptibility by glucose consumption, bacteria from plated cultures (Example 2, Table 6); assay type: cell-based
Procedure: (§1) If the susceptibility score is a qualitative susceptibility score classifying the microorganism as "susceptible", or "non-susceptible" to an antibiotic agent the answer could be given in as little as 1 hour. Bacteria from plated cultures were suspended in cation adjusted Mueller-Hinton broth (SVA, Uppsala, Sweden) supplemented with glucose. Consequently, the concentration of microorgansims was typically two orders of magnitude higher as compared to Example 1. […] The tested microorganisms was one strain of E. faecium, two strains of E.coli and one S. aureus. Table 6. "--" denotes no measurement

E. coli 17 = assay: as above; assay type: cell-based
Procedure: as §1

E. coli ATCC 25922 [3] = assay: as above; assay type: cell-based
Procedure: as §1

S. aureus = assay: as above; assay type: cell-based
Procedure: If the susceptibility score is a qualitative susceptibility score classifying the microorganism as "susceptible", or "non-susceptible" to an antibiotic agent the answer could be given in as little as 1 hour.
Bacteria from plated cultures were suspended in cation adjusted Mueller-Hinton broth (SVA, Uppsala, Sweden) supplemented with glucose. Consequently, the concentration of microorgansims was typically two orders of magnitude higher as compared to Example 1. […] The tested microorganisms was one strain of E. faecium, two strains of E.coli and one S. aureus. Table 6. "--" denotes no measurement

[4] = tested on: Staphylococcus aureus (ATCC 29213); assay: Antibiotic susceptibility by glucose consumption in culture medium, blood culture bottle inoculum (Example 1); assay type: cell-based; details: for Glucose concentration t=0: 0 minutes; for Glucose concentration t=60: 60 minutes; for Glucose concentration t=120: 120 minutes; for Glucose concentration t=180: 180 minutes; for Glucose concentration t=240: 240 minutes; for dC/dT: rate of change in glucose concentration;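 for dC/dT: rate calculated between the 60 and 180 min readings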
Method in brief: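 Bacteria grown in blood culture bottles until positive, diluted 1:100 into cation-adjusted Mueller-Hinton broth with glucose at 1.0 mg/mL plus antibiotic (µg/mL). Glucose read by glucometer at 0–240 min.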

[5] = tested on: Staphylococcus aureus ATCC 29213; details: S.aureus, cited from earlier work
E. faecium [6] = assay: Qualitative susceptibility by glucose consumption, directly from positive BC-bottles (Example 2, Table 7); assay type: cell-based
Procedure: With slightly lower microbe concentrations e.g. directly from positive BC-bottles (^~10^9 CFU/ml) the results are shown at least within 2 hours, where E. coli ATCC 25922 is classified as susceptible and E. faecium is non-susceptible. Table 7. "--" denotes no measurement

[7] = tested on: Escherichia coli ATCC 25922; details: E.coli, cited from earlier work
[8] = tested on: Enterococcus faecalis ATCC 29212; details: E.faecalis, cited from earlier work
[9] = range obtained by EUCAST from ISO 20776-1: 2006
[10] = reference MIC value, EUCAST QC tables Version 7.0, 2017

Substance: Gentamicin
- Qualitative susceptibility score (E. coli ATCC 25922 [1]; E. coli ATCC 25922, 256 µg/mL, from positive BC-bottles, within 2 hours, Table 7): susceptible
- Glucose concentration t=0 (E. coli ATCC 25922 [1]; [Ab] 256 µg/mL, t=0): 145
- Glucose concentration t=45 (E. coli ATCC 25922 [1]; [Ab] 256 µg/mL, t=45): 155
- Glucose concentration t=60 (E. coli ATCC 25922 [1]; [Ab] 256 µg/mL, t=60): 151
- Glucose concentration t=90 (E. coli ATCC 25922 [1]; [Ab] 256 µg/mL, t=90): 140
- Glucose concentration t=105 (E. coli ATCC 25922 [1]; [Ab] 256 µg/mL, t=105): 135
- Qualitative susceptibility score (E. faecium [2]; E. faecium, 256 µg/mL, plated cultures, Table 6): non-susceptible
- Glucose concentration t=0 (E. faecium [2]; [Ab] 256 µg/mL, t=0): 79
- Glucose concentration t=15 (E. faecium [2]; [Ab] 256 µg/mL, t=15): 47
- Qualitative susceptibility score (E. coli 17; E. coli 17, 256 µg/mL, plated cultures, Table 6): susceptible
- Glucose concentration t=15 (E. coli 17; [Ab] 256 µg/mL, t=15): 131
- Glucose concentration t=30 (E. coli 17; [Ab] 256 µg/mL, t=30): 126
- Glucose concentration t=45 (E. coli 17; [Ab] 256 µg/mL, t=45): 123
- Qualitative susceptibility score (E. coli ATCC 25922 [3]; E. coli ATCC 25922, 256 µg/mL, plated cultures, Table 6): susceptible
- Glucose concentration t=15 (E. coli ATCC 25922 [3]; [Ab] 256 µg/mL, t=15): 156
- Glucose concentration t=30 (E. coli ATCC 25922 [3]; [Ab] 256 µg/mL, t=30): 155
- Glucose concentration t=45 (E. coli ATCC 25922 [3]; [Ab] 256 µg/mL, t=45): 136
- Qualitative susceptibility score (S. aureus; S. aureus, 256 µg/mL, plated cultures, Table 6): susceptible
- Glucose concentration t=15 (S. aureus; [Ab] 256 µg/mL, t=15): 137
- Glucose concentration t=30 (S. aureus; [Ab] 256 µg/mL, t=30): 139
- Glucose concentration t=45 (S. aureus; [Ab] 256 µg/mL, t=45): 131
- MIC Measured ([4]; S.aureus, 80% threshold of rate of change vs reference, between 60 and 180 minutes, obtained in 4 hours): 0.25 µg/mL
- F=the rate of change in glucose concentration in relation to the reference ([4]; [Ab] 0,5 µg/mL): 57%
- Glucose concentration t=0 ([4]; [Ab] 0,5 µg/mL): 143
- Glucose concentration t=60 ([4]; [Ab] 0,5 µg/mL): 154
- Glucose concentration t=120 ([4]; [Ab] 0,5 µg/mL): 137
- Glucose concentration t=180 ([4]; [Ab] 0,5 µg/mL): 116
- Glucose concentration t=240 ([4]; [Ab] 0,5 µg/mL): 78
- dC/dT ([4]; [Ab] 0,5 µg/mL): 19
- F=the rate of change in glucose concentration in relation to the reference ([4]; [Ab] 0,25 µg/mL): 66%
- Glucose concentration t=0 ([4]; [Ab] 0,25 µg/mL): 143
- Glucose concentration t=60 ([4]; [Ab] 0,25 µg/mL): 146
- Glucose concentration t=120 ([4]; [Ab] 0,25 µg/mL): 140
- Glucose concentration t=180 ([4]; [Ab] 0,25 µg/mL): 102
- Glucose concentration t=240 ([4]; [Ab] 0,25 µg/mL): 55
- dC/dT ([4]; [Ab] 0,25 µg/mL): 22
- F=the rate of change in glucose concentration in relation to the reference ([4]; [Ab] 1 µg/mL): 30%
- Glucose concentration t=0 ([4]; [Ab] 1 µg/mL): 137
- Glucose concentration t=60 ([4]; [Ab] 1 µg/mL): 154
- Glucose concentration t=120 ([4]; [Ab] 1 µg/mL): 146
- Glucose concentration t=180 ([4]; [Ab] 1 µg/mL): 134
- Glucose concentration t=240 ([4]; [Ab] 1 µg/mL): 119
- dC/dT ([4]; [Ab] 1 µg/mL): 10
- F=the rate of change in glucose concentration in relation to the reference ([4]; [Ab] 2 µg/mL): 12%
- Glucose concentration t=0 ([4]; [Ab] 2 µg/mL): 144
- Glucose concentration t=60 ([4]; [Ab] 2 µg/mL): 154
- Glucose concentration t=180 ([4]; [Ab] 2 µg/mL): 146
- Glucose concentration t=240 ([4]; [Ab] 2 µg/mL): 148
- dC/dT ([4]; [Ab] 2 µg/mL): 4
- F=the rate of change in glucose concentration in relation to the reference ([4]; [Ab] 4 µg/mL): 10%
- Glucose concentration t=60 ([4]; [Ab] 4 µg/mL): 157
- Glucose concentration t=120 ([4]; [Ab] 4 µg/mL): 147
- Glucose concentration t=180 ([4]; [Ab] 4 µg/mL): 150
- Glucose concentration t=240 ([4]; [Ab] 4 µg/mL): 149
- dC/dT ([4]; [Ab] 4 µg/mL): 4
- F=the rate of change in glucose concentration in relation to the reference ([4]; [Ab] 8 µg/mL): 0%
- Glucose concentration t=0 ([4]; [Ab] 8 µg/mL): 142
- Glucose concentration t=60 ([4]; [Ab] 8 µg/mL): 154
- Glucose concentration t=120 ([4]; [Ab] 8 µg/mL): 150
- Glucose concentration t=180 ([4]; [Ab] 8 µg/mL): 154
- Glucose concentration t=240 ([4]; [Ab] 8 µg/mL): 140
- dC/dT ([4]; [Ab] 8 µg/mL): 0
- F=the rate of change in glucose concentration in relation to the reference ([4]; [Ab] 16 µg/mL): 0%
- Glucose concentration t=0 ([4]; [Ab] 16 µg/mL): 139
- Glucose concentration t=60 ([4]; [Ab] 16 µg/mL): 145
- Glucose concentration t=120 ([4]; [Ab] 16 µg/mL): 150
- Glucose concentration t=180 ([4]; [Ab] 16 µg/mL): 145
- Glucose concentration t=240 ([4]; [Ab] 16 µg/mL): 145
- dC/dT ([4]; [Ab] 16 µg/mL): 0
- F=the rate of change in glucose concentration in relation to the reference ([4]; [Ab] 32 µg/mL): 3%
- Glucose concentration t=0 ([4]; [Ab] 32 µg/mL): 144
- Glucose concentration t=60 ([4]; [Ab] 32 µg/mL): 148
- Glucose concentration t=120 ([4]; [Ab] 32 µg/mL): 145
- Glucose concentration t=180 ([4]; [Ab] 32 µg/mL): 146
- Glucose concentration t=240 ([4]; [Ab] 32 µg/mL): 145
- dC/dT ([4]; [Ab] 32 µg/mL): 1
- MIC EUCAST, range in parentheses [5, 9]: 0.125 to 1 µg/mL
- MIC EUCAST [5, 10]: 0.25 to 0.5 µg/mL
- Qualitative susceptibility score (E. faecium [6]; E. faecium, 256 µg/mL, from positive BC-bottles, within 2 hours, Table 7): non-susceptible
- Glucose concentration t=0 (E. faecium [6]; [Ab] 256 µg/mL, t=0): 144
- Glucose concentration t=45 (E. faecium [6]; [Ab] 256 µg/mL, t=45): 105
- Glucose concentration t=60 (E. faecium [6]; [Ab] 256 µg/mL, t=60): 77
- Glucose concentration t=75 (E. faecium [6]; [Ab] 256 µg/mL, t=75): 47
- MIC EUCAST, range in parentheses [7, 9]: 0.25 to 1 µg/mL
- MIC EUCAST [7, 10]: 0.5 µg/mL
- MIC EUCAST, range in parentheses [8, 9]: 4 to 16 µg/mL
- MIC EUCAST [8, 10]: 8 µg/mL

From patent EP3717657B1, “A SYSTEM FOR ASSESSING MICROBIAL SUSCEPTIBILITY TO ANTIBIOTIC AGENTS” (Ascilion AB, priority 2017, dated 2019)
